Test results reported in ChEMBL document CHEMBL5352419, “Design, synthesis, and biological evaluation of tetrahydroquinoline amphiphiles as membrane-targeting antimicrobials against pathogenic bacteria and fungi” (Eur J Med Chem, 2022).
≈ marks a conversion by molar mass, not a printed value.

Legend:
Format in all cases: functional
Staphylococcus aureus [1] = assay: Disruption of preformed biofilm in Staphylococcus aureus ATCC29213 assessed as residual preformed biofilm at 12.5 ug/mL incubated for 24 hrs by crystal violet staining based analysis relative to control; details: dose 12.5 µg/ml
Escherichia coli = assay: Antimicrobial activity against Escherichia coli ATCC25922 assessed as bacterial growth inhibition incubated for 24 hrs by Muller Hinton broth based dilution assay
Staphylococcus aureus [2] = assay: Antibiofilm activity against Staphylococcus aureus ATCC29213 assessed as inhibition of biofilm formation at 6.25 ug/mL incubated for 24 hrs by crystal violet staining based analysis relative to control
Staphylococcus aureus [3] = assay: Disruption of preformed biofilm in Staphylococcus aureus ATCC29213 assessed as residual preformed biofilm at 0.78 ug/mL incubated for 24 hrs by crystal violet staining based analysis relative to control; details: dose 0.78 µg/ml
Staphylococcus aureus [4] = assay: Disruption of preformed biofilm in Staphylococcus aureus ATCC29213 assessed as residual preformed biofilm at 6.25 ug/mL incubated for 24 hrs by crystal violet staining based analysis relative to control; details: dose 6.25 µg/ml
Staphylococcus aureus [5] = assay: Antibiofilm activity against Staphylococcus aureus ATCC29213 assessed as inhibition of biofilm formation at 0.39 ug/mL incubated for 24 hrs by crystal violet staining based analysis relative to control
Staphylococcus aureus [6] = assay: Antimicrobial activity against methicillin-resistant Staphylococcus aureus NCTC10442 assessed as bacterial growth inhibition incubated for 24 hrs by Muller Hinton broth based dilution assay
Staphylococcus aureus [7] = assay: Disruption of preformed biofilm in Staphylococcus aureus ATCC29213 assessed as residual preformed biofilm at 3.125 ug/mL incubated for 24 hrs by crystal violet staining based analysis relative to control; details: dose 3.125 µg/ml
Staphylococcus aureus [8] = assay: Antimicrobial activity against Staphylococcus aureus ATCC29213 assessed as bacterial growth inhibition incubated for 24 hrs by Muller Hinton broth based dilution assay
Staphylococcus aureus [9] = assay: Antibiofilm activity against Staphylococcus aureus ATCC29213 assessed as inhibition of biofilm formation at 0.78 ug/mL incubated for 24 hrs by crystal violet staining based analysis relative to control
Staphylococcus aureus [10] = assay: Disruption of preformed biofilm in Staphylococcus aureus ATCC29213 assessed as residual preformed biofilm at 0.39 ug/mL incubated for 24 hrs by crystal violet staining based analysis relative to control; details: dose 0.39 µg/ml
Staphylococcus aureus [11] = assay: Antimicrobial activity against methicillin-resistant Staphylococcus aureus N315 assessed as bacterial growth inhibition incubated for 24 hrs by Muller Hinton broth based dilution assay
Pseudomonas aeruginosa = assay: In vivo antibacterial activity against Pseudomonas aeruginosa ATCC9027 infected in keratitis C57BL/6 mouse model assessed as log reduction in bacterial load at 0.3 % administered topically 4 times per day for 3 days; details: time 3 day

## CN[C@H](CC(C)C)C(=O)N[C@H]1C(=O)N[C@@H](CC(N)=O)C(=O)N[C@H]2C(=O)N[C@H]3C(=O)N[C@H](C(=O)N[C@H](C(=O)O)c4cc(O)cc(O)c4-c4cc3ccc4O)[C@H](O)c3ccc(c(Cl)c3)Oc3cc2cc(c3O[C@@H]2O[C@H](CO)[C@@H](O)[C@H](O)[C@H]2O[C@H]2C[C@](C)(N)[C@H](O)[C@H](C)O2)Oc2ccc(cc2Cl)[C@H]1O [VANCOMYCIN]
Staphylococcus aureus [1]
  Activity: -0.81%
Escherichia coli
  MIC: > 50 µg/mL
Staphylococcus aureus [2]
  inhibition at 6.25 µg/mL: 99.6%
Staphylococcus aureus [3]
  Activity: 91.12%
Staphylococcus aureus [4]
  Activity: 10.69%
Staphylococcus aureus [5]
  inhibition at 0.39 µg/mL: 3.73%
Staphylococcus aureus [6]
  MIC: 1.56 µg/mL (≈ 1.08 µM)
Staphylococcus aureus [7]
  Activity: 49.44%
Staphylococcus aureus [8]
  MIC: 0.78 µg/mL (≈ 0.538 µM)
Staphylococcus aureus [9]
  inhibition at 0.78 µg/mL: 30.3%
Staphylococcus aureus [10]
  Activity: 98.16%
Staphylococcus aureus [11]
  MIC: 1.56 µg/mL (≈ 1.08 µM)

## COc1c(N2CCNC(C)C2)c(F)cc2c(=O)c(C(=O)O)cn(C3CC3)c12 (stereo not drawn) [GATIFLOXACIN]
Pseudomonas aeruginosa
  log(activity): 3.7
